Results from ChEMBL document CHEMBL6092215, “A Prostate-Specific Membrane Antigen-Targeting Small Molecule-Drug Conjugate Strategy to Overcome the Hematological Toxicity of Olaparib” (J Med Chem, 2024).

Tests used:
[1] = test system: LNCaP; experiment: Antiproliferative activity against human LNCaP cells with high PSMA expression assessed as effect on cell viability incubated for 72 hrs by MTT assay; assay type: functional, cell-based
[2] = test system: CWR22R; experiment: Antiproliferative activity against human 22Rv1 cells with high PSMA expression assessed as effect on cell viability incubated for 72 hrs by MTT assay; assay type: functional, cell-based; settings: 22Rv1, 72 h
[3] = test system: PC-3; experiment: Antiproliferative activity against PSMA negative human PC-3 cells assessed as effect on cell viability incubated for 72 hrs by MTT assay; assay type: functional
[4] = Antiproliferative activity against PSMA negative human RWPE-1 cells assessed as effect on cell viability incubated for 72 hrs by MTT assay; assay type: toxicity, cell-based; settings: RWPE-1 cells (PSMA negative)

Row | SMILES | IC50 [1] [µM] | IC50 [2] [µM] | CC50 [3] [mM] | CC50 at 72 h [4] [mM]
1 | CC(C)[C@@H](NC(=O)CCC(=O)NCCCC[C@H](NC(=O)N[C@@H](CCC(=O)O)C(=O)O)C(=O)O)C(=O)N1CCN(C(=O)c2cc(Cc3n[nH]c(=O)c4ccccc34)ccc2F)CC1 | 121 | 128 | > 1 | > 1
2 | CC(C)C[C@H](NC(=O)CCC(=O)NCCCC[C@H](NC(=O)N[C@@H](CCC(=O)O)C(=O)O)C(=O)O)C(=O)N1CCN(C(=O)c2cc(Cc3n[nH]c(=O)c4ccccc34)ccc2F)CC1 | 130 | 113 | > 1 | > 1
3 | O=C(O)CC[C@H](NC(=O)N[C@@H](CCCCNC(=O)CCC(=O)N[C@@H](CO)C(=O)N1CCN(C(=O)c2cc(Cc3n[nH]c(=O)c4ccccc34)ccc2F)CC1)C(=O)O)C(=O)O | 202 | 209 | > 1 | > 1
4 | O=C(O)CC[C@H](NC(=O)N[C@@H](CCCCNC(=O)CCOC(=O)N1CCN(C(=O)c2cc(Cc3n[nH]c(=O)c4ccccc34)ccc2F)CC1)C(=O)O)C(=O)O | 182 | 289 | > 1 | > 1
5 | O=C(O)CC[C@H](NC(=O)N[C@@H](CCCCNC(=O)CCN1CCN(C(=O)c2cc(Cc3n[nH]c(=O)c4ccccc34)ccc2F)CC1)C(=O)O)C(=O)O | 284 | 286 | > 1 | > 1
6 | O=C(O)CC[C@H](NC(=O)N[C@@H](CCCCNC(=O)CCCCCCC(=O)N1CCN(C(=O)c2cc(Cc3n[nH]c(=O)c4ccccc34)ccc2F)CC1)C(=O)O)C(=O)O | 99.9 | 137 | > 1 | > 1
7 | O=C(O)CC[C@H](NC(=O)N[C@@H](CCCCNC(=O)CCSSCCC(=O)N1CCN(C(=O)c2cc(Cc3n[nH]c(=O)c4ccccc34)ccc2F)CC1)C(=O)O)C(=O)O | 259 | 432 | > 1 | > 1
8 | O=C(O)CC[C@H](NC(=O)N[C@@H](CCCCNC(=O)CCC(=O)N[C@@H](C(=O)N1CCN(C(=O)c2cc(Cc3n[nH]c(=O)c4ccccc34)ccc2F)CC1)c1ccccc1)C(=O)O)C(=O)O | 173 | 162 | > 1 | > 1
9 | O=C(O)CC[C@H](NC(=O)N[C@@H](CCCCNC(=O)CCNC(=O)N1CCN(C(=O)c2cc(Cc3n[nH]c(=O)c4ccccc34)ccc2F)CC1)C(=O)O)C(=O)O | 273 | 327 | > 1 | > 1
10 | O=C(O)CC[C@H](NC(=O)N[C@@H](CCCCNC(=O)CCCNC(=O)N1CCN(C(=O)c2cc(Cc3n[nH]c(=O)c4ccccc34)ccc2F)CC1)C(=O)O)C(=O)O | 300 | 337 | > 1 | > 1
11 | CC(C)[C@H](NC(=O)CCC(=O)NCCCC[C@H](NC(=O)N[C@@H](CCC(=O)O)C(=O)O)C(=O)O)C(=O)N1CCN(C(=O)c2cc(Cc3n[nH]c(=O)c4ccccc34)ccc2F)CC1 | 111 | 122 | > 1 | > 1
12 | O=C(O)CC[C@H](NC(=O)N[C@@H](CCCCNC(=O)CCC(=O)NCCCC(=O)N1CCN(C(=O)c2cc(Cc3n[nH]c(=O)c4ccccc34)ccc2F)CC1)C(=O)O)C(=O)O | 162 | 134 | > 1 | > 1
13 | CC[C@@H](C)[C@H](NC(=O)CCC(=O)NCCCC[C@H](NC(=O)N[C@@H](CCC(=O)O)C(=O)O)C(=O)O)C(=O)N1CCN(C(=O)c2cc(Cc3n[nH]c(=O)c4ccccc34)ccc2F)CC1 | 135 | 126 | > 1 | > 1
14 | O=C(O)CC[C@H](NC(=O)N[C@@H](CCCCNC(=O)CCC(=O)NCC(=O)N1CCN(C(=O)c2cc(Cc3n[nH]c(=O)c4ccccc34)ccc2F)CC1)C(=O)O)C(=O)O | 147 | 126 | > 1 | > 1
15 | O=C(O)CC[C@H](NC(=O)N[C@@H](CCCCNC(=O)CCCC(=O)N1CCN(C(=O)c2cc(Cc3n[nH]c(=O)c4ccccc34)ccc2F)CC1)C(=O)O)C(=O)O | 96.6 | 139 | > 1 | > 1
16 | O=C(O)CC[C@H](NC(=O)N[C@@H](CCCCNC(=O)CCC(=O)N[C@@H](Cc1ccccc1)C(=O)N1CCN(C(=O)c2cc(Cc3n[nH]c(=O)c4ccccc34)ccc2F)CC1)C(=O)O)C(=O)O | 152 | 132 | > 1 | > 1
17 | O=C(O)CC[C@H](NC(=O)N[C@@H](CCCCNC(=O)N1CCN(C(=O)c2cc(Cc3n[nH]c(=O)c4ccccc34)ccc2F)CC1)C(=O)O)C(=O)O | 251 | 314 | > 1 | > 1
18 | CSCC[C@H](NC(=O)CCC(=O)NCCCC[C@H](NC(=O)N[C@@H](CCC(=O)O)C(=O)O)C(=O)O)C(=O)N1CCN(C(=O)c2cc(Cc3n[nH]c(=O)c4ccccc34)ccc2F)CC1 | 190 | 175 | > 1 | > 1
19 | O=C(O)CC[C@H](NC(=O)N[C@@H](CCCCNC(=O)c1cc(Cc2n[nH]c(=O)c3ccccc23)ccc1F)C(=O)O)C(=O)O | 283 | 455 | > 1 | > 1
20 | O=C(O)CC[C@H](NC(=O)N[C@@H](CCCCNC(=O)CCCNC(=O)CCCCCCC(=O)N1CCN(C(=O)c2cc(Cc3n[nH]c(=O)c4ccccc34)ccc2F)CC1)C(=O)O)C(=O)O | 238 | 208 | > 1 | > 1
21 | CN(CC(=O)N1CCN(C(=O)c2cc(Cc3n[nH]c(=O)c4ccccc34)ccc2F)CC1)C(=O)CCC(=O)NCCCC[C@H](NC(=O)N[C@@H](CCC(=O)O)C(=O)O)C(=O)O | 136 | 129 | > 1 | > 1
22 | NC(=O)NCCC[C@H](NC(=O)CCC(=O)NCCCC[C@H](NC(=O)N[C@@H](CCC(=O)O)C(=O)O)C(=O)O)C(=O)N1CCN(C(=O)c2cc(Cc3n[nH]c(=O)c4ccccc34)ccc2F)CC1 | 242 | 265 | > 1 | > 1
23 | C[C@H](NC(=O)CCC(=O)NCCCC[C@H](NC(=O)N[C@@H](CCC(=O)O)C(=O)O)C(=O)O)C(=O)N1CCN(C(=O)c2cc(Cc3n[nH]c(=O)c4ccccc34)ccc2F)CC1 | 129 | 133 | > 1 | > 1
